Results: patent US20100184770A1, “COMPOUNDS” (Glaxo Group Limited, priority 2006, published 2010)

Target: T1, histamine H3 receptor (Homo sapiens, UniProt Q9Y5N1)
T1 construct: expressed in transfected cells; host or cells: CHO K1 cells with pSwitch/pGene (GeneSwitch), clone 3H3, mifepristone-induced; membranes
Assay: Histamine H3 functional antagonist assay ([35S]-GTPγS, membranes)
Assay type: biochemical
Settings: histamine at EC80, read-out: average pKi (pKb) at H3 (converted)
Method: The histamine H3 cDNA is isolated from its holding vector, pcDNA3.1 TOPO (InVitrogen), by restriction digestion of plasmid DNA with the enzymes BamH1 and Not-1 and is ligated into the inducible expression vector pGene (InVitrogen) digested with the same enzymes. The GeneSwitch™ system (a system where in transgene expression is switched off in the absence of an inducer and switched on in the presence of an inducer) is performed as described in U.S. Pat. Nos. 5,364,791; 5,874,534; and 5,935,934. Ligated DNA is transformed into competent DH5α E. coli host bacterial cells and is plated onto Luria Broth (LB) agar containing Zeocin™ (an antibiotic which allows the selection of cells expressing the sh ble gene which is present on pGene and pSwitch) at 50 μgml^−1. Colonies containing the re-ligated plasmid are identified by restriction analysis. […]
10-14 days post selection, 10 nM Mifepristone (InVitrogen) is added to the culture medium to induce the expression of the receptor. […] Receptor bound antibody is detected by incubation of the cells for 60 min on ice with a goat anti rabbit antibody, conjugated with Alexa 488 fluorescence marker (Molecular Probes). Following two further washes with Sorting Medium, cells are filtered through a […] Filcon™ (BD Biosciences) and then are analysed on a FACS Vantage SE Flow Cytometer fitted with an Automatic Cell Deposition Unit. […]

T1 sequence (Q9Y5N1 whole entry, species assumed): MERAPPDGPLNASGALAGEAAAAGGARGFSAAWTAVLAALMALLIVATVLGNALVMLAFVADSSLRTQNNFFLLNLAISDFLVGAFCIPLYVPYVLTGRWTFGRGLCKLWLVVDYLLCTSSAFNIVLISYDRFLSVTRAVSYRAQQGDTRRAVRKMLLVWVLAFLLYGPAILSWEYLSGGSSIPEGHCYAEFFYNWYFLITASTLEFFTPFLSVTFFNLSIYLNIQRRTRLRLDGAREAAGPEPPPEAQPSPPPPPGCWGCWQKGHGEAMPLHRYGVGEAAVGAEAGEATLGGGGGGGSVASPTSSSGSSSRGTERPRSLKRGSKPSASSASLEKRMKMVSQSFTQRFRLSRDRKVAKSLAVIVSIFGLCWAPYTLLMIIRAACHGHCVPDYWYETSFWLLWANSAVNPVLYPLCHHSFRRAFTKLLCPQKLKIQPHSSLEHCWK

SMILES | Ki
COCCC(=O)NCCN1CCC[C@@H]1Cn1nc(Cc2ccc(Cl)cc2)c2ccccc2c1=O.O=CO [Example 35, N-[2-((2R)-2-{[4-[(4-Chlorophenyl)methyl]-1-oxo-2(1H)-phthalazinyl]methyl}-1-pyrrolidinyl)ethyl]-3-(methyloxy)propanamide, formate salt] | > 316 nM
Cl.O=C(CC(F)(F)F)NCCN1CCC[C@@H]1Cn1nc(Cc2ccc(Cl)cc2)c2ccccc2c1=O [Example 36a, N-[2-((2R)-2-{[4-[(4-Chlorophenyl)methyl]-1-oxo-2(1H)-phthalazinyl]methyl}-1-pyrrolidinyl)ethyl]-3,3,3-trifluoropropanamide, hydrochloride] | > 316 nM
